# Where two headings read alike, the source gives them in different places.
# Key:
# [1] = Source text: X-Ray tube with Cu target anode Divergence slits 1 0, Receiving slit 0.15 mm, Scatter slit 1 0 Power: 40 KV, 100 mA; Scanning speed: 2 degree/minute step: 0.02 degree; Wave length: 1.5406 A; Spray Dryer: PST01
# [2] = Storage stability at 25 ± 2° C. and 60 ± 5% RH; assay type: physicochemical
# [3] = 40 ± 2° C. and 75 ± 5% RH, 1 Month
# [4] = 40 ± 2° C. and 75 ± 5% RH, 2 Month
# [5] = 40 ± 2° C. and 75 ± 5% RH, 3 Month
# [6] = 40 ± 2° C. and 75 ± 5% RH, Initial
# [7] = 40 ± 2° C. and 75 ± 5% RH (Using BHA), 1 Month
# [8] = 40 ± 2° C. and 75 ± 5% RH (Using BHA), 2 Month
# [9] = 40 ± 2° C. and 75 ± 5% RH (Using BHA), Initial
compound,measurement,setting,value
"CC(C)(C(=O)O)c1ccc(C(O)CCCN2CCC(C(O)(c3ccccc3)c3ccccc3)CC2)cc1.Cl (racemic) [amorphous fexofenadine hydrochloride, (±)-4-[1 hydroxy-4-[4-(hydroxydiphenylmethyl)-1-piperidinyl]-butyl]-α,α-dimethyl benzeneacetic acid hydrochloride]",time for which the product is stable,[1]; different storage conditions (Tables 1-3),≥ 3 months
"CC(C)(C(=O)O)c1ccc(C(O)CCCN2CCC(C(O)(c3ccccc3)c3ccccc3)CC2)cc1.Cl (racemic) [Example 1, (±)-4-[1 hydroxy-4-[4-(hydroxydiphenylmethyl)-1-piperidinyl]-butyl]-α,α-dimethyl benzeneacetic acid hydrochloride]",Assay by HPLC,[1]; [3],99.4 % w/w on dried basis
same,Description,[1]; [3],White Powder
same,Possible impurities Comp-A,[1]; [3],0.050
same,Related Subs,[1]; [3],0.201 % w/w
same,XRD,[1]; [3],Complies
same,Assay by HPLC,[1]; [4],98.7 % w/w on dried basis
same,Description,[1]; [4],White Powder
same,Possible impurities Comp-A,[1]; [4],0.047
same,Possible impurities ME-pF (Methyl ester of p-fexofenadine),[1]; [4],0.002
same,Possible impurities TRS-1,[1]; [4],0.008
same,Related Subs,[1]; [4],0.237 % w/w
same,XRD,[1]; [4],Complies
same,Assay by HPLC,[1]; [5],99.3 % w/w on dried basis
same,Description,[1]; [5],White Powder
same,Possible impurities Comp-A,[1]; [5],0.053
same,Related Subs,[1]; [5],0.203 % w/w
same,XRD,[1]; [5],Complies
same,Assay by HPLC,[1]; [6],99.0 % w/w on dried basis
same,Description,[1]; [6],White Powder
same,Possible impurities Comp-A,[1]; [6],0.049
same,Related Subs,[1]; [6],0.188 % w/w
same,XRD,[1]; [6],Complies
same,Assay by HPLC,[2]; 3 Month,99.4 % w/w on dried basis
same,Description,[2]; 3 Month,White Powder
same,Possible impurities Comp-A,[2]; 3 Month,0.050
same,Related Subs,[2]; 3 Month,0.213 % w/w
same,XRD,[2]; 3 Month,Complies
same,Assay by HPLC,[2]; 6 Month,98.8 % w/w on dried basis
same,Description,[2]; 6 Month,White Powder
same,Possible impurities Comp-A,[2]; 6 Month,0.040
same,Related Subs,[2]; 6 Month,0.186 % w/w
same,XRD,[2]; 6 Month,Complies
same,Assay by HPLC,[2]; 9 Month,100.2 % w/w on dried basis
same,Description,[2]; 9 Month,White Powder
same,Possible impurities Comp-A,[2]; 9 Month,0.039
same,Related Subs,[2]; 9 Month,0.171 % w/w
same,XRD,[2]; 9 Month,Complies
same,Assay by HPLC,[2]; Initial,99.0 % w/w on dried basis
same,Description,[2]; Initial,White Powder
same,Possible impurities Comp-A,[2]; Initial,0.049
same,Related Subs,[2]; Initial,0.188 % w/w
same,XRD,[2]; Initial,Complies
"CC(C)(C(=O)O)c1ccc(C(O)CCCN2CCC(C(O)(c3ccccc3)c3ccccc3)CC2)cc1.Cl (racemic) [Example 2, (±)-4-[1 hydroxy-4-[4-(hydroxydiphenylmethyl)-1-piperidinyl]-butyl]-α,α-dimethyl benzeneacetic acid hydrochloride]",Assay by HPLC,[1]; [7],99.6 % w/w on dried basis
same,Description,[1]; [7],White powder
same,Possible impurities Comp-A,[1]; [7],0.069
same,Possible impurities ME-mF (Methyl ester of m-fexofenadine),[1]; [7],0.023
same,Possible impurities TRS-1,[1]; [7],0.008
same,Related Subs,[1]; [7],0.227 % w/w
same,XRD,[1]; [7],Complies
same,Assay by HPLC,[1]; [8],99.3 % w/w on dried basis
same,Description,[1]; [8],White powder
same,Possible impurities Comp-A,[1]; [8],0.067
same,Possible impurities ME-mF (Methyl ester of m-fexofenadine),[1]; [8],0.019
same,Possible impurities TRS-1,[1]; [8],0.009
same,Related Subs,[1]; [8],0.218 % w/w
same,XRD,[1]; [8],Complies
same,Assay by HPLC,[1]; [9],99.3 % w/w on dried basis
same,Description,[1]; [9],White powder
same,Possible impurities Comp-A,[1]; [9],0.071
same,Possible impurities ME-mF (Methyl ester of m-fexofenadine),[1]; [9],0.023
same,Related Subs,[1]; [9],0.219 % w/w
same,XRD,[1]; [9],Complies
